In one data set the test system is food intake in the rat. Nature of the data set: Food intake in food-deprived rats: single-drug dose-responses and isobolographic analysis. Particulars: PO, 18 h food-deprived rat, 30 min intake measured 1 h after drug; from logarithmic regressions; read-out: ED50, inhibition of food intake. It counts as in vivo. As for the experimental part: Male Sprague–Dawley rats (Harlan, San Diego, CA) weighing 250–350 g were used for behavioural studies. Upon arrival at the test facility, animals were triple housed within a holding room controlled for humidity, temperature, and light (lights off 1800–0600 hours). Rats received food (2018SX Teklad Rodent Diet) and water ad libitum unless stated otherwise. Over the course of all studies, rats were re-used up to four times, with at least one week of washout between tests. Rats were assigned to treatment groups pseudo-randomly from test to test. One week prior to initial drug testing, all rats were subject to a single food intake test which was identical to all subsequent drug tests, except that all rats received vehicle administration. Group size for all studies, including brain sampling, was eight.
Eighteen hours prior to food intake testing (1600 hours), food was removed from home cages. On the next day, animals were weighed and placed into cages with grid floors at 1000 hours, and allowed to acclimate to these cages for a 90-min period with free access to water and no food. At 1130 hours, rats were injected with compounds via oral gavage. Thirty minutes after injection (1200 hours), animals were allowed access to food. Food was then weighed at 30 min after food exposure (1 h after drug administration). Upon test conclusion, rats were returned to home cages with ad libitum access to food and water.
Doses were selected based upon previous in-house experience with these compounds and ascended in twofold steps. Two subsequent studies were run for each isobologram, with dose–responses of each compound pair run in combination with a fixed, low dose of the other (phentermine 1 mg/kg; AR630 1 mg/kg; dexfenfluramine 0.5 mg/kg; lorcaserin 1 mg/kg). To approximate the true experimental errors in these experiments, a bootstrapping with replacement approach was used (Huber [1981]; Launer and Wilkinson [1979]) in which five data sets were generated from random samples of the measured data points for both the individual dose–responses and for each drug/dose combination. […] A line of additivity with confidence limits was then drawn between the dose–responses of each compound alone.

A short description of data set [1]: Brain drug concentrations 60 min after single oral dose (LC-MS/MS). It counts as in vivo, rat. Particulars: for concentration at 60 min: brain. As for the experimental part:
In vivo methods employed for pharmacokinetic studies were identical to those described for food intake studies except that after dosing, rats were not placed into new cages with grid floors. At 60 min after dosing (and 30 min after food access), rats were anesthetized with isoflurane, blood was collected via cardiac puncture, and brains were removed from the cranium. Blood samples were dispensed into sodium heparinized vials and capped and stored at 4 °C. Plasma was separated from formed elements in blood by centrifugation (10 min at 3,000×g) and frozen. Brains were rinsed with ice-cold phosphate-buffered saline, blotted dry, weighed, and frozen. Plasma and brain samples were stored at −80 °C prior to bioanalytical analysis.
Brain samples were thawed on ice, placed into 50 mL plastic conical tubes, and two volumes of purified water/gram of brain was added. Brains were homogenized using a mechanical variable speed tissue homogenizer; 50 μL of brain homogenate was transferred to a 1-mL plastic tube. A volume of acetonitrile (200 μL) containing internal standard was added to brain homogenate, mixed by vortex, and centrifuged (15 min at 3,700 rpm). […] Supernatants were analysed for lorcaserin, AR630, phentermine, dexfenfluramine, and the major metabolite of dexfenfluramine, norfenfluramine. Compound concentrations were determined using a LC-MS/MS method. Analytes were separated by reverse phase chromatography (Kinetex 3 × 30 mm, C18, 2.6 μm, 100 Å, HPLC Column, Phenomenex, Torrance, CA) using a binary gradient on a Shimadzu LC system (Shimadzu Corp., Columbia, MD). The gradient consisted of 0.1 % formic acid in water and 0.1 % formic acid in acetonitrile with a flow rate of 650 μL/min.

In data set [2] the target is T1, 5-HT2C (Homo sapiens, UniProt P28335).
T1 sequence (P28335 33-458): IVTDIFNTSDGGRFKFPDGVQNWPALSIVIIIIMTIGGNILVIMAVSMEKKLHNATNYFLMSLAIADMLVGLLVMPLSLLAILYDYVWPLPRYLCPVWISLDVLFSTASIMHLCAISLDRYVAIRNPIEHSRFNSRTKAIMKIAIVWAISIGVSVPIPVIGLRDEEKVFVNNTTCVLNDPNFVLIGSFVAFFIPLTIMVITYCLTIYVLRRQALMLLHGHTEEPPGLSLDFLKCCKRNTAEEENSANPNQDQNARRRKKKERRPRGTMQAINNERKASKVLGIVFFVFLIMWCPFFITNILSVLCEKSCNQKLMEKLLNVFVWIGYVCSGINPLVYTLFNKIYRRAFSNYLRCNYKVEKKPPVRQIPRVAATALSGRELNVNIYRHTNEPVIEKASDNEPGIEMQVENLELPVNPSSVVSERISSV
Nature of the data set: Functional activity at 5-HT2C. The class given is biochemical. Particulars: internally generated data.

Data set [3] has as its target T2, 5-HT2A (Homo sapiens, UniProt P28223). As to the kind of experiment: Functional activity at 5-HT2A. Particulars: internally generated data. The class given is biochemical.
In data set [4] the target is T3, 5-HT2B (Homo sapiens, UniProt P41595). Nature of the data set: Functional activity at 5-HT2B. It counts as biochemical. Particulars: internally generated data.
T3 sequence (P41595 whole entry, species assumed): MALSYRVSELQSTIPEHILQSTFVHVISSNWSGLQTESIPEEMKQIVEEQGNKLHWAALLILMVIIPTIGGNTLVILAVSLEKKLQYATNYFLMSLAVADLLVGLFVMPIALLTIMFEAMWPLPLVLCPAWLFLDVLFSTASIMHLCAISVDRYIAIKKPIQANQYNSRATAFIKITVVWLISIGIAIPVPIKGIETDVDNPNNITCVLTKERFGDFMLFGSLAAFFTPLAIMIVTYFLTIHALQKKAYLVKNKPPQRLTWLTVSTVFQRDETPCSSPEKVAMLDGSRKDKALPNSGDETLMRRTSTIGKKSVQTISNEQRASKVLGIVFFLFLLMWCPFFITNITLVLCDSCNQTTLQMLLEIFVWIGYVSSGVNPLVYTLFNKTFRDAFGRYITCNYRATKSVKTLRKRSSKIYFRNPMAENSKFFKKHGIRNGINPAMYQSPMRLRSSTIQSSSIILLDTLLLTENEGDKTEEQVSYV
The target of data set [5] is T1, 5-HT2C. Nature of the data set: 125I-DOI binding at 5-HT2C. The note with it: internally generated data.
Data set [6] has as its target T2, 5-HT2A. Nature of the data set: 125I-DOI binding at 5-HT2A. Particulars: internally generated data.
The target of data set [7] is T3, 5-HT2B. Nature of the data set: 125I-DOI binding at 5-HT2B. Particulars: internally generated data.
For data set [8] the following is noted: when administered alone; cited from earlier work.
For data set [9] the following is noted: combining topiramate with phentermine, humans; ref Qsymia Drug Label information; cited from earlier work.
[10] abbreviates: read-out: intrinsic activity (IA).

SMILES strings stand for the structures. Read-outs that look alike come from different tables or passages of the source. Marks after values point to notes of the source that are not given here.

T2 sequence (P28223 whole entry): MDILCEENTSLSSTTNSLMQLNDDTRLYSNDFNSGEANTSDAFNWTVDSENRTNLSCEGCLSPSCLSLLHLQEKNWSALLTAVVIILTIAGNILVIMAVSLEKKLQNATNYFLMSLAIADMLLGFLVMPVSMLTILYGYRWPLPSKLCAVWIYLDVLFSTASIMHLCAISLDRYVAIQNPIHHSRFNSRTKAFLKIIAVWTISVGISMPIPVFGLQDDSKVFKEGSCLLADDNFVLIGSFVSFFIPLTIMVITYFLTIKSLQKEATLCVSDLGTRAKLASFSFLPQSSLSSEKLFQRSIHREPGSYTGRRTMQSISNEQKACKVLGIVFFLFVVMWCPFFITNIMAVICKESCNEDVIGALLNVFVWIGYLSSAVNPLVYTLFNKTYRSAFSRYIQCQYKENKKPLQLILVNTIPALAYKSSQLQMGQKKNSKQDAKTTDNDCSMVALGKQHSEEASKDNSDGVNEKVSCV

By ED50 is commonly meant the dose at which the effect has come halfway, by size or by number of responders. In the case of `C[C@H]1CNCCc2ccc(Cl)cc21` [Lorcaserin], in the data set with food intake in the rat, the ED50 is 1.98 mg/kg. Further, the concentration at 60 min in data set [1] (Sprague-Dawley, rat, oral, 1 mg/kg, lorcaserin 1 mg/kg PO alone, 60 min, rat, mean ± SEM, read-out: Brain concentration, alone) worked out at 1380 ng/g; in data set [1] (Sprague-Dawley, rat, oral, lorcaserin 1 mg/kg PO with phentermine 1 mg/kg, 60 min, rat, mean ± SEM, read-out: Brain concentration, combination) it was 1440 ng/g. Moreover, in [1] (lorcaserin 1 mg/kg PO with phentermine 1 mg/kg, 60 min, rat), the “Fold-change in brain concentration, combination vs alone” value (shortened to “Fold-change in brain concentration”) was 1.05.

As a reminder, the EC50 is the concentration at which the effect is half-maximal. Read a high EC50 as weaker potency. A word on the Ki: it is the dissociation constant of the complex between target and ligand, obtained from inhibition or displacement. For `C[C@@H]1CNCCN1c1cc(Cl)ccc1F` [AR630], in the data set on food intake in the rat, the ED50 is 4.25 mg/kg. In [1] (AR630 1 mg/kg PO with phentermine 1 mg/kg, 60 min, rat), the “Fold-change in brain concentration” value was 1.12. Besides, the concentration at 60 min in data set [1] (Sprague-Dawley, rat, oral, AR630 1 mg/kg PO with phentermine 1 mg/kg, 60 min, rat, mean ± SEM, read-out: Brain concentration, combination) stood at 92 ± 25 ng/g; in data set [1] (Sprague-Dawley, rat, po, 1 mg/kg, AR630 1 mg/kg PO alone, 60 min, rat, mean ± SEM, read-out: Brain concentration, alone), 82 ± 14 ng/g. Moreover, the EC50 at 5-HT2C [2] turned out to be 0.01 µM; at 5-HT2A [3], 0.4 µM; at 5-HT2B [4], 1 µM. In addition, the Emax is 100% on 5-HT2C [2] (setting [10]), 60% at 5-HT2A [3] (setting [10]) and less than 10% on 5-HT2B [4] (setting [10]). In addition, the Ki at 5-HT2C [5] stood at 0.004 µM; on 5-HT2A [6] it was 0.12 µM; at 5-HT2B [7], 0.1 µM.

`CC(C)(N)Cc1ccccc1` [Phentermine]: the ED50 in the data set on food intake in the rat turned out to be 2.45 mg/kg. Moreover, the Kp at 60 min in data set [1] (Sprague-Dawley, brain/plasma, oral, phentermine dosed alone or in the various combinations, rat (data not shown), read-out: brain/plasma ratio) is approximately 13. Also, the concentration at 60 min in [1] (Sprague-Dawley, rat, oral, 1 mg/kg, phentermine 1 mg/kg PO alone, 60 min, rat, AR630 study, mean ± SEM, read-out: Brain concentration, alone) was determined as 226 ± 32 ng/g; in [1] (Sprague-Dawley, rat, oral, 1 mg/kg, phentermine 1 mg/kg PO alone, 60 min, rat, dexfenfluramine study, mean ± SEM, read-out: Brain concentration, alone) it was 298 ± 29 ng/g; in [1] (Sprague-Dawley, rat, oral, 1 mg/kg, phentermine 1 mg/kg PO alone, 60 min, rat, lorcaserin study, mean ± SEM, read-out: Brain concentration, alone), 298 ± 29 ng/g; in data set [1] (Sprague-Dawley, rat, oral, phentermine 1 mg/kg PO with AR630 1 mg/kg, 60 min, rat, mean ± SEM, read-out: Brain concentration, combination), 866 ± 120 ng/g; in [1] (Sprague-Dawley, rat, oral, phentermine 1 mg/kg PO with dexfenfluramine 0.5 mg/kg, 60 min, rat, mean ± SEM, read-out: Brain concentration, combination), 787 ± 57 ng/g; in data set [1] (Sprague-Dawley, rat, oral, phentermine 1 mg/kg PO with lorcaserin 1 mg/kg, 60 min, rat, mean ± SEM, read-out: Brain concentration, combination) it was 335 ± 18 ng/g. The “Fold-change in brain concentration” value in data set [1] (phentermine 1 mg/kg PO with AR630 1 mg/kg, 60 min, rat) is listed as 3.80**; in data set [1] (phentermine 1 mg/kg PO with AR630 1 mg/kg, 60 min, rat, listed as phentermine), 3.8; in data set [1] (phentermine 1 mg/kg PO with dexfenfluramine 0.5 mg/kg, 60 min, rat), 2.60**; in data set [1] (phentermine 1 mg/kg PO with dexfenfluramine 0.5 mg/kg, 60 min, rat, listed as phentermine), 2.6; in data set [1] (phentermine 1 mg/kg PO with lorcaserin 1 mg/kg, 60 min, rat), 1.12; in data set [1] (phentermine 1 mg/kg PO with lorcaserin 1 mg/kg, 60 min, rat, listed as phentermine), 1.1. In addition, the “fraction of dose excreted as unchanged phentermine in urine” value in data set [8] is 70–80%. Moreover, the “increase in phentermine area under the curve” value in [9] was 42%.

In the case of `CCN[C@@H](C)Cc1cccc(C(F)(F)F)c1` [Dexfenfluramine, (S)+-fenfluramine], the median effective dose (ED50) in the data set on food intake in the rat came out at 1.44 mg/kg. In addition, the concentration at 60 min worked out at 130 ± 13 ng/g in data set [1] (Sprague-Dawley, rat, oral, 0.5 mg/kg, dexfenfluramine 0.5 mg/kg PO alone, 60 min, rat, mean ± SEM, read-out: Brain concentration, alone) and 141 ± 19 ng/g in [1] (Sprague-Dawley, rat, oral, dexfenfluramine 0.5 mg/kg PO with phentermine 1 mg/kg, 60 min, rat, mean ± SEM, read-out: Brain concentration, combination). Moreover, the “Fold-change in brain concentration” value in data set [1] (dexfenfluramine 0.5 mg/kg PO with phentermine 1 mg/kg, 60 min, rat) stood at 1.08.

On to `CC(N)Cc1cccc(C(F)(F)F)c1` (centres unmarked) [Norfenfluramine, norfenfluramine], for which, in [1] (after dexfenfluramine PO, 60 min, rat), the “brain concentration of metabolite relative to parent dexfenfluramine” value is on record as “approximately sixfold”. Besides, in [1] (metabolite norfenfluramine after dexfenfluramine 0.5 mg/kg PO alone, 60 min, rat, mean ± SEM), the “Brain concentration, alone” value stood at 805 ± 50 ng/g. The “Fold-change in brain concentration” value in data set [1] (metabolite norfenfluramine after dexfenfluramine 0.5 mg/kg PO with phentermine 1 mg/kg, 60 min, rat) turned out to be 0.94. The “Brain concentration, combination” value in data set [1] (metabolite norfenfluramine after dexfenfluramine 0.5 mg/kg PO with phentermine 1 mg/kg, 60 min, rat, mean ± SEM) is recorded as 760 ± 27 ng/g.

Source of the values: paper PMC4425807, “Investigating interactions between phentermine, dexfenfluramine, and 5-HT2C agonists, on food intake in the rat” (Psychopharmacology, 2014).
